# According to patent US7279444B2, “Substituted benzoylpyrazoles” (Bayer CropScience GmbH, priority 1999, dated 2007):
# Marks after values point to notes of the source that are not given here.
# Test: log P by HPLC on reversed-phase column (C 18), acidic range
# Type: physicochemical
# Conditions: not given
# Experimental: Temperature: 43° C. […] The log P values given in Table 3 were determined in accordance with EEC Directive 79/831 Annex V.A8 by HPLC (High Performance Liquid Chromatography) on a reversed-phase column (C 18). Temperature: 43° C. […] The log P values given in Tables 4 were determined in accordance with EEC Directive 79/831 Annex V.A8 by HPLC (High Performance Liquid Chromatography) on a reversed-phase column (C 18). Temperature: 43° C.
row,SMILES,logP
1,CCOC(=O)c1ccc(Br)cc1Cn1nc(Br)n(C)c1=O [IV-75],logP = 2.80^a)
2,CCOC(=O)c1ccc(Br)cc1Cn1nc(C)oc1=O [IV-73],logP = 2.88^a)
3,CCOc1nn(Cc2cc(S(C)(=O)=O)ccc2C(=O)OC)c(=O)n1C [IV-115],logP = 1.59^a)
4,CCn1ncc(C(=O)c2ccc(C(F)(F)F)cc2Cn2nc(OC)n(C3CC3)c2=O)c1O [Example 7],(IA)logP = 2.28^a)
5,CCn1ncc(C(=O)c2ccc(F)c(Cn3nc(N(C)C)n(C)c3=O)c2Cl)c1O [Example 72],logP = 1.62^a)
6,CCn1ncc(C(=O)c2ccc(C(F)(F)F)cc2Cn2nc(SC)n(C)c2=O)c1OCC(=O)c1ccc(C)cc1 [ID-46],logP = 3.47^a)
7,COC(=O)c1ccc(C(F)(F)F)cc1Cn1nc(SC)n(C)c1=O [IV-118],logP = 2.65^a)
8,Cc1nn(C)c(O)c1C(=O)c1ccc(F)cc1Cn1nc(N(C)C)n(C)c1=O [Example 9],logP = 1.32^a)
9,COC(=O)c1ccc(S(C)(=O)=O)cc1Cn1nc(SC)n(C)c1=O [IV-114],logP = 1.53^a)
10,CCn1ncc(C(=O)c2ccc(C(F)(F)F)cc2Cn2nc(SC)n(C)c2=O)c1OCc1ccc(C)cc1 [ID-35],logP = 3.71^a)
11,CCOC(=O)c1ccc(Br)cc1Cn1nc2n(c1=O)CCC2 [IV-68],logP = 2.16^a)
12,CCn1ncc(C(=O)c2ccc(C(F)(F)F)cc2Cn2nc(SC)n(C)c2=O)c1OCc1ccc(Cl)c(Cl)c1 [ID-40],logP = 4.17^a)
13,CCn1ncc(C(=O)c2ccc(C(F)(F)F)cc2Cn2nc(SC)n(C)c2=O)c1OC(C)C [ID-32],logP = 3.00^a)
14,CCOc1nn(Cc2cc(C(F)(F)F)ccc2C(=O)c2cnn(CC)c2OCc2cccc(C(F)(F)F)c2)c(=O)n1C [ID-27],logP = 3.94^a)
15,CN1CCCN(Cc2c(Cl)ccc(C(=O)c3cnn(C)c3O)c2Cl)C1=O [ID-3],logP = 1.52^a)
16,CCN1CCN(Cc2c(Cl)ccc(C(=O)c3c(C)nn(CC)c3O)c2Cl)C1=O [ID-57],logP = 1.79^a)
17,Cc1nn(C(C)(C)C)c(O)c1C(=O)c1ccc(Cl)c(CN2CCN(C)C2=O)c1Cl [ID-53],logP = 2.79^a)
18,CCn1nc(C)c(C(=O)c2ccc(Cl)c(CN3CCCN(C)C3=O)c2Cl)c1O [ID-5],logP = 1.72^a)
19,CCn1ncc(C(=O)c2ccc(C(F)(F)F)cc2Cn2nc(SC)n(C)c2=O)c1OC [ID-30],logP = 2.65^a)
20,CCOc1nn(Cc2cc(C(F)(F)F)ccc2C(=O)c2cnn(CC)c2OCc2ccc(C#N)cc2)c(=O)n1C [ID-20],logP = 3.12^a)
21,CCN1CCN(Cc2c(Cl)ccc(C(=O)c3c(C)nn(C)c3O)c2Cl)C1=O [ID-55],logP = 1.57^a)
22,CCn1ncc(C(=O)c2ccc(F)c(Cn3nc(SC)n(C)c3=O)c2Cl)c1O [Example 70],logP = 1.76^a)
23,CCn1ncc(C(=O)c2ccc(C(F)(F)F)cc2Cn2nc(SC)n(C)c2=O)c1OS(C)(=O)=O [ID-12],logP = 2.82^a)
24,CCn1ncc(C(=O)c2ccc(C(F)(F)F)cc2Cn2nc(SC)n(C)c2=O)c1OCc1cccc(Cl)c1 [ID-41],logP = 3.76^a)
25,CCn1nc(C)c(C(=O)c2ccc(Cl)c(Cn3nc(SC)n(C)c3=O)c2Cl)c1O [Example 41],logP = 1.91^a)

row,SMILES,logP
1,CCOC(=O)c1ccc(C(F)(F)F)cc1Cn1c(=O)n(C)c(=O)n1C [IV-113],logP = 2.58^a)
2,CCn1nc(C)c(C(=O)c2ccc(Cl)c(Cn3nc(Br)n(C)c3=O)c2Cl)c1O [Example 44],logP = 1.81^a)
3,CCn1ncc(C(=O)c2ccc(Cl)c(Cn3nc(C)n(C)c3=O)c2Cl)c1O [Example 29],logP = 1.38^a)
4,CCCOc1nn(Cc2cc(C(F)(F)F)ccc2C(=O)OCC)c(=O)n1C [IV-71],logP = 3.54^a)
5,CCn1ncc(C(=O)c2ccc(C(F)(F)F)cc2Cn2nc(OC)n(C)c2=O)c1O [Example 66],logP = 2.27^a)
6,CCn1ncc(C(=O)c2ccc(Br)cc2-n2nc(C(F)(F)F)n(C)c2=O)c1O [Example 27],logP = 2.55^a)
7,CCOC(=O)c1ccc(C(F)(F)F)cc1Cn1nc(OCC)n(C2CC2)c1=O [IV-47],logP = 3.48^a)
8,CCn1ncc(C(=O)c2ccc(C(F)(F)F)cc2Cn2cc(Cl)cc(Cl)c2=O)c1O [ID-8],logP = 2.75^a)
9,CCOc1nn(Cc2cc(C(F)(F)F)ccc2C(=O)c2cnn(CC)c2OCc2ccc(C(F)(F)F)cc2)c(=O)n1C [ID-26],logP = 3.98^a)
10,CCOC(=O)c1ccc(Cl)cc1Cn1nc(C(F)(F)F)n(C)c1=O [IV-43],logP = 3.31^a)
11,CCOc1nn(Cc2cc(C(F)(F)F)ccc2C(=O)c2cnn(CC)c2OCc2ccccc2)c(=O)n1C [ID-17],logP = 3.45^a)
12,COC(=O)c1ccc(Cl)c(Cn2nc(SC)n(C)c2=O)c1Cl [IV-3],logP = 2.27^a)
13,COC(=O)c1ccc(Cl)c(Cn2nc(N(C)C)n(C)c2=O)c1Cl [IV-12],logP = 2.11^a)
14,CCOC(=O)c1ccc(Br)c(Cn2nc(C(F)(F)F)n(C)c2=O)c1 [IV-40],logP = 3.23^a)
15,CCn1ncc(C(=O)c2ccc(C(F)(F)F)cc2Cn2nc(SC)sc2=O)c1O [ID-7],logP = 2.98^a)
16,CCn1ncc(C(=O)c2ccc(Cl)c(CN3CCCN(C)C3=O)c2Cl)c1O [ID-2],logP = 1.77^a)
17,CCn1ncc(C(=O)c2ccc(Cl)c(Cn3nc(N(C)C)n(C4CC4)c3=O)c2Cl)c1O [Example 37],(IB)logP = 2.04^a)
18,C=CCOc1c(C(=O)c2ccc(C(F)(F)F)cc2Cn2nc(OCC)n(C)c2=O)cnn1CC [ID-16],logP = 2.99^a)
19,COC(=O)c1ccc(Cl)c(Cn2nc(OC(C)C)n(C)c2=O)c1Cl [IV-7],logP = 2.73^a)
20,CCn1ncc(C(=O)c2ccc(Cl)c(Cn3nc(OCC(F)(F)F)n(C)c3=O)c2Cl)c1O [Example 23],logP = 2.33^a)
21,CCOC(=O)c1ccc(F)cc1Cn1nc(COC)n(C)c1=O [IV-96],logP = 2.05^a)
22,CCn1ncc(C(=O)c2ccc(Cl)c(Cn3nc(OC)n(C)c3=O)c2Cl)c1O [Example 21],logP = 1.69^a)
23,COc1nn(Cc2c(Cl)ccc(C(=O)c3c(C)nn(C)c3O)c2Cl)c(=O)n1C [Example 53],logP = 1.48^a)
24,CCCOc1nn(Cc2cc(F)ccc2C(=O)OCC)c(=O)n1C [IV-95],logP = 2.96^a)
25,COC(=O)c1ccc(Cl)c(Cn2nc(OC)n(C3CC3)c2=O)c1Cl [IV-15],logP = 2.36^a)

row,SMILES,logP
1,CCOC(=O)c1ccc(Br)cc1Cn1nc2n(c1=O)CCCC2 [IV-69],logP = 2.41^a)
2,CN1CCN(Cc2c(Cl)ccc(C(=O)c3cnn(C)c3O)c2Cl)C1=O [ID-50],logP = 1.41^a)
3,CCOc1nn(Cc2cc(C(F)(F)F)ccc2C(=O)c2cnn(CC)c2OC(C)C)c(=O)n1C [ID-15],logP = 3.11^a)
4,CCOC(=O)c1ccc(Br)c(Cn2nc(C3CC3)n(C3CC3)c2=O)c1 [IV-41],logP = 3.02^a)
5,COC(=O)c1ccc(Cl)c(Cn2nc(Br)n(C)c2=O)c1Cl [IV-9],logP = 2.18^a)
6,CCn1ncc(C(=O)c2ccc(Cl)c(Cn3nc(Br)n(C)c3=O)c2Cl)c1O [Example 24],logP = 1.81^a)
7,CCn1ncc(C(=O)c2ccc(C(F)(F)F)cc2Cn2nc(SC)n(C)c2=O)c1OCc1ccccc1 [ID-34],logP = 3.37^a)
8,COC(=O)c1ccc(Cl)c(CN2C(=O)c3ccccc3S2(=O)=O)c1Cl [IV-25],logP = 2.94^a)
9,CCOc1nn(Cc2cc(C(F)(F)F)ccc2C(=O)c2cnn(CC)c2OCc2ccc([N+](=O)[O-])cc2)c(=O)n1C [ID-25],logP = 3.33^a)
10,CCOC(=O)c1ccc(Cl)cc1Cn1nc(OCC)n(C2CC2)c1=O [IV-42],logP = 3.23^a)
11,Cc1nn(C(C)(C)C)c(O)c1C(=O)c1ccc(Cl)c(CN2CCCN(C)C2=O)c1Cl [ID-6],logP = 3.01^a)
12,CCn1ncc(C(=O)c2ccc(S(C)(=O)=O)cc2Cn2nc(C(F)(F)F)n(C)c2=O)c1O [Example 67],logP = 1.60^a)
13,CCn1ncc(C(=O)c2ccc(Cl)c(Cn3nc(C(F)(F)F)n(C)c3=O)c2Cl)c1O [Example 17],logP = 2.30^a)
14,C=CCOc1c(C(=O)c2ccc(C(F)(F)F)cc2Cn2nc(SC)n(C)c2=O)cnn1CC [ID-33],logP = 2.89^a)
15,CCOc1nn(Cc2cc(C(F)(F)F)ccc2C(=O)OC)c(=O)n1C [IV-117],logP = 2.74^a)
16,CCOC(=O)c1ccc(F)c(Cn2nc(Br)n(C)c2=O)c1 [IV-36],logP = 2.41^a)
17,CCn1ncc(C(=O)c2ccc(C(F)(F)F)cc2Cn2nc(COC)n(C)c2=O)c1O [Example 65],logP =1.98^a)
18,CCn1ncc(C(=O)c2ccc(Cl)c(Cn3nc(N(C)C)n(C)c3=O)c2Cl)c1O [Example 28],logP = 1.77^a)
19,CCn1ncc(C(=O)c2ccc(C(F)(F)F)cc2Cn2nc(C)n(C)c2=O)c1O [Example 64],logP = 1.80^a)
20,CCOC(=O)c1ccc(C(F)(F)F)cc1Cn1nc(Br)n(C)c1=O [IV-119],logP = 2.96^a)
21,CCn1ncc(C(=O)c2ccc(Cl)c(Cn3nc4n(c3=O)CCCC4)c2Cl)c1O [Example 30],logP = 1.55^a)
22,CCn1ncc(C(=O)c2ccc(Cl)c(CN3CCN(C)C3=O)c2Cl)c1O [ID-1],logP = 1.64^a)
23,CCOc1nn(Cc2cc(C(F)(F)F)ccc2C(=O)c2cnn(CC)c2OCc2ccc(C)cc2)c(=O)n1C [ID-18],logP = 3.79^a)
24,CCn1ncc(C(=O)c2ccc(Cl)c(Cn3nc(OC(C)C)n(C4CC4)c3=O)c2Cl)c1O [Example 33],(IB)logP = 4.64^a)
25,COc1nn(Cc2c(Cl)ccc(C(=O)c3c(C)nn(C(C)(C)C)c3O)c2Cl)c(=O)n1C [Example 48],logP = 3.02^a)

# Same assay, conditions: reversed-phase HPLC column (C 18); pH=2
row,SMILES,chromatographic logP
1,"CCn1ncc(C(=O)c2ccc(-n3nc(C(F)(F)F)n(C)c3=O)cc2Cl)c1O [Example 1, 4-methyl-5-trifluoromethyl-2-[3-chloro-4-(1-ethyl-5-hydroxy-pyrazol-4-yl-carbonyl)-phenyl]-2,4-dihydro-3H-1,2,4-triazol-3-one]",2.63
